The subject of data set [1] is RTT spheroids. Kind of data set: FLIPR spontaneous calcium oscillation assay of iPSC-derived cortical brain spheroids (SMART library screen). The class given is cell-based, human. The note with it: for rescue or reversal of the RTT disease state, multi parametric plot of spheroid calcium oscillation activity / effect of the drugs on the condition (spontaneous calcium oscillations): 1 micro molar; for rescue or reversal of the RTT disease state, multi parametric plot of spheroid calcium oscillation activity: FIG. 3 and FIG. 4, compared with WT spheroids; for effect of the drugs on the condition (spontaneous calcium oscillations): WT and RTT spheroids, FIG. 4; for outcome of the SMART library screen (multivariant analysis): 298-compound SMART library on WT and RTT matured spheroids. The source says:
In one embodiment, the present disclosure provides human induced pluripotent stem cells iPScs that are subsequently differentiated into human cortical neurons comprising neurons and astrocytes in approximately a 50:50 ratio. The ratio can be adjusted on a case by case basis depending on the particular disease of interest from 1 to 99% either neurons or astrocytes. The 3D spheroids are comprised of approximately 50:50 neurons to astrocytes ratio +1-10%. The methods of differentiating and forming 3 dimensional spheroids and functional testing with FLIPR optical techniques is described in copending patent application No. 62/532667. In the examples in this invention we use a disease model cell line which are known to carry genes responsible for Rett syndrome.
In the present disclosure both Wild Type (WT) and Rett Disease (RTT) cortical brain human tissue spheroids were prepared for the purpose of high throughput screening to identify therapeutic compounds that can modulate the brain activity in an attempt to revert or rescue the disease state back to near normal activity or homeostasis. For example, the cell lines employed (control or “WT” and disease “RTT”) may be from a family without and with the Rett disease phenotype.
The method disclosed herein may, in one embodiment, include manufacturing 3D spheroids in 384 well round bottom microtiter plates, see, e.g. U.S. patent application No. 62/532,667, the disclosure of which is incorporated herein. […] In the present disclosure, 6 to 14 weeks of maturation is a maturation range for testing, e.g., 8 to 10 weeks of maturation.
The oscillations being measured are from calcium flux moving into and out of the cells at ambient conditions. The oscillations are spontaneous and not generated by an external source. The measurements are conducted in real time and the data captured by using a technique called FLIPR that is well known in the prior art. […] When analyzing the data, it is important to understand that multiple factors contribute to the signal being recorded by the FLIPR software. Therefore, in the present disclosure 7 parameters are recorded to determine if the data generated from the spheroid is meaningful. The parameters measured are, e.g., peak count, peak width, average peak spacing, peak spacing standard deviation, peak decay time, peak rise time, and/or peak amplitude.
In the present disclosure, the SMART library that contained 298 compounds was used on both WT and RTT matured spheroids over several weeks and the FLIPR data collected and analyzed for potential therapeutic efficacy. The SMART (Selected Molecular Agents for Rett Therapy) library of compounds is well vetted by modern day bioinformatics methods, tightly focused on Rett syndrome and its biological causes. The library is currently housed at the University of Illinois-Chicago. […] With the goals in mind to save both time and resources and accelerate drug discovery for Rett syndrome, the compounds in the SMART library are readily available to investigators working on Rett syndrome research.

The subject of data set [2] is pregnant rats. The note with it: given to pregnant rats; cited from earlier work.
Data set [3] relates to pregnant mice. The note with it: given to pregnant mice; cited from earlier work.
In data set [4] the test system is humans. The settings on record: 1950s and 1960s; cited from earlier work.

SMILES strings stand for the structures. Entries after “also recorded” stand apart in the source; their conditions may differ. Structures can show the parent of a compound that is named as a salt.

For `O=C(CCCCCCC(=O)Nc1ccccc1)NO` [Vorinostat], the “rescue or reversal of the RTT disease state, multi parametric plot of spheroid calcium oscillation activity” value in data set [1] (RTT spheroids) is “no effect to rescue or reverse the spontaneous calcium oscillations”. Further, the “effect of the drugs on the condition (spontaneous calcium oscillations)” value in data set [1] was “made the condition worse”.

Regarding `CC(=O)Nc1nnc(S(N)(=O)=O)s1` [Acetazolamide], the “outcome of the SMART library screen (multivariant analysis)” value (“outcome of the SMART library screen” for short) in data set [1] was “therapeutics of interest”.

`NCC(CC(=O)O)c1ccc(Cl)cc1` (stereo not shown) [Baclofen]: the “outcome of the SMART library screen” value in data set [1] is reported as “therapeutics of interest”.

For `COc1cc(N)c(Cl)cc1C(=O)NC1CCN(Cc2ccccc2)CC1` [Clebopride Mal ate], the “outcome of the SMART library screen” value in data set [1] is “therapeutics of interest”.

Turning to `CC(C)COc1ccc(CNC(=O)N(Cc2ccc(F)cc2)C2CCN(C)CC2)cc1` [Pinmavanserin], the “outcome of the SMART library screen” value in data set [1] was “therapeutics of interest”.

For the compound `OC(CCN1CCCCC1)(c1ccccc1)C1CCCCC1` (stereo not shown) [Benzhexol Hydrochloride], in data set [1], the “outcome of the SMART library screen” value is listed as “therapeutics of interest”.

Turning to `OC(CCN1CCCCC1)(c1ccccc1)C1CC2C=CC1C2` (stereo not shown) [Biperiden], in data set [1], the “outcome of the SMART library screen” value is recorded as “therapeutics of interest”.

With `CN1CCC[C@@H]1Cc1c[nH]c2ccc(CCS(=O)(=O)c3ccccc3)cc12` [Eletriptan HBr Salt], in data set [1], the “outcome of the SMART library screen” value is “therapeutics of interest”.

For `CCOC(=O)C1=C[C@]2(CC)CCCN3CCc4c(n1c1ccccc41)[C@@H]32` [Vinpocetine], the “outcome of the SMART library screen” value in data set [1] is “therapeutics of interest”.

Turning to `CN(C)CCCOc1nn(Cc2ccccc2)c2ccccc12.Cl` [Benzydiamine Hydrochloride], the “outcome of the SMART library screen” value in data set [1] is listed as “therapeutics of interest”.

For `Cc1nccn1CC1CCc2c(c3ccccc3n2C)C1=O` (stereo not shown) [Ondansetron], the “outcome of the SMART library screen” value in data set [1] is “therapeutics of interest”.

With `O=C1Nc2cc(Br)ccc2/C1=C1/Nc2ccccc2/C1=N\O` [Bromoindirubin-3-oxime], the “outcome of the SMART library screen” value in data set [1] is listed as “therapeutics of interest”.

As for `O=c1n(CCCN2CCN(c3cccc(Cl)c3)CC2)nc2ccccn12` [Trazodone, Trazodone (Beneficat)], the “outcome of the SMART library screen” value in data set [1] is on record as “therapeutics of interest”.

For the compound `CC(C)n1c(=O)n(C(=O)NC2CC3CCC(C2)N3C)c2ccccc21` (stereo not shown) [BIMU-8], the “outcome of the SMART library screen” value in data set [1] is on record as “therapeutics of interest”. Also, in data set [1] (RTT spheroids), the “rescue or reversal of the RTT disease state, multi parametric plot of spheroid calcium oscillation activity” value was “significant effect on reversing or rescuing the RTT disease state”. For the same compound, the “rescue of spontaneous calcium peak frequency and amplitude behavior to the WT state” value in data set [1] (RTT spheroids, 2-week exposure time, FIG. 5) is “rescuing the oscillation activity back to WT normal behavior; also recorded: nearly rescued the WT state”.

As to `COc1cc(C(C)=O)ccc1OCCCN1CCC(c2noc3cc(F)ccc23)CC1` [Iloperidone], the “outcome of the SMART library screen” value in data set [1] was “therapeutics of interest”.

Take `CNCC[C@@H](Oc1ccccc1C)c1ccccc1` [Atomoxetine, Atomoxetine (Tomoxetine)]: the “outcome of the SMART library screen” value in data set [1] is reported as “therapeutics of interest”.

For the compound `CC1Nc2ccc(Cl)cc2S(=O)(=O)N1` (stereo not shown) [IDRA-21], in data set [1], the “outcome of the SMART library screen” value is listed as “therapeutics of interest”.

For `Oc1cc(O)c2c(c1)O[C@H](c1cc(O)c(O)c(O)c1)[C@H](O)C2` [Epigallocatechin], in data set [1] (RTT spheroids), the “rescue or reversal of the RTT disease state, multi parametric plot of spheroid calcium oscillation activity” value is on record as “no effect to rescue or reverse the spontaneous calcium oscillations”. For the same compound, the “effect of the drugs on the condition (spontaneous calcium oscillations)” value in data set [1] is given as “made the condition worse”.

Turning to `O=C1CCC(N2C(=O)c3ccccc3C2=O)C(=O)N1` (stereo not shown) [thalidomide], the birth defects entry in data set [2] is “does not cause birth defects”; in data set [3], “does not cause birth defects”; in data set [4], “caused an international epidemic of birth defects”.
